For 8 compounds, EC50, cytotoxicity and melting point results are on record in paper PMC9026082, “Madecassic Acid—A New Scaffold for Highly Cytotoxic Agents” (International Journal of Molecular Sciences, 2022).

Data set [1] has as its system HT29 (colorectal carcinoma). As to the kind of experiment: SRB cytotoxicity assay, HT29. Format: cell-based, human. Conditions: cut-off 30 μM. The source says: (§1) To assess their cytotoxicity parent, triterpenoic acids 1–3, their acetates 4–6, the amides 7–18, as well as the respective rhodamine B conjugates 19–24 were subjected to SRB assays employing several human tumor cell lines (A375, HT29, MCF-7, A2780, and HeLa) as well as non-malignant fibroblasts (NIH 3T3).
(§2) A detailed description of materials and methods can be found in the Supplementary Materials File. For biological screening, the cell lines were obtained from ATCC: A375 (CRL-1619), HT29 (HTB-38), MCF7 (HTP-22), A2780 (HTP-77), HeLa (CCL-2), and NIH 3T3 (CRL-1573) ^13C NMR spectra (Supplementary Materials) were recorded as APT spectra showing CH and CH3 groups as positive signals and CH2 groups and quaternary carbons as negative signals. […]
(§3) 2. Cytotoxicity assay (SRB assay)
(§4) The cell lines were obtained from Department of oncology (Martin-Luther-University Halle Wittenberg). Cultures were maintained as monolayers in RPMI 1640 medium with L-glutamine (Capricorn Scientific GmbH, Ebsdorfergrund, Germany) supplemented with 10% heat inactivated fetal bovine serum (Sigma -Aldrich Chemie GmbH, Steinheim, Germany) and penicillin/streptomycin (1%, Capricorn Scientific GmbH, Ebsdorfergrund, Germany) at 37 °C in a humidified atmosphere with 5% CO 2.
(§5) The cytotoxicity of the compounds was eva luated using the sulforhodamine -B (Kiton-Red S, ABCR) micro culture colorimetric assay using […] in 96 -well plates with the seeding of the cells on day 0 applying appropriate cell densities to prevent confluence of the cells during the period of the experiment. On day 1, the cells were treated with six di fferent concentrations (1, 3, 7, 12, 20 and 30 μM); thereby, the final concentration of DMSO was always < 0.5%, generally regarded as non-toxic to the cells. On day 4, the supernatant medium was discarded; the cells were fixed with 10 % trichloroacetic acid. After another day at 4 °C, the cells were washed in a strip washer and dyed with the SRB solution (100 μL, 0.4% in 1% acetic acid) for about 20 min to be followed by washing of the plates (four times, 1% acetic acid) and air -drying […]
(§6) overnight. Furthermore, tris base solution (200 μL, 10 mM) was added to each well and absorbance was measured at λ = 570 nm employing a reader (96 wells, Tecan Spectra, Crailsheim, Germany). The EC50 values were averaged from three independent experiments performed each in triplicate calculated from semi logarithmic dose response curves applying a non-linear four-parameter Hills-slope equation (GraphPad Prism5; variables top and bottom were set to 100 and 0, respectively).
A general note: In SRB staining, fixed cells bind dye roughly in proportion to their protein.

For data set [2], the system named is NIH 3T3 (non-malignant fibroblasts). The data set can be described thus: SRB cytotoxicity assay, NIH 3T3. In kind it is cell-based. The following applies: cut-off 30 μM.
Excerpt: as §1, §2, §3, §4, §5, §6

The test system of data set [3] is MCF7 (breast adenocarcinoma). The data set can be described thus: SRB cytotoxicity assay, MCF7. Format: cell-based, human. The following applies: cut-off 30 μM.
Excerpt: as §1, §2, §3, §4, §5, §6

The subject of data set [4] is HeLa (cervical carcinoma). As to the kind of experiment: SRB cytotoxicity assay, HeLa. In kind it is cell-based, human. Conditions: 72 h of treatment, cut-off 30 μM.
Excerpt: as §1, §2, §3, §4, §5, §6

A further data set deals with A375 (melanoma). The data set can be described thus: SRB cytotoxicity assay, A375. In kind it is cell-based, human. Conditions: 72 h of treatment, cut-off 30 μM.
Excerpt: as §1, §2, §3, §4, §5, §6

In data set [5] the test system is A2780 (ovarian carcinoma). As to the kind of experiment: SRB cytotoxicity assay, A2780. Format: cell-based, human. Conditions: SRB assay, 72 h of treatment, cut-off 30 μM.
Excerpt: as §1, §2, §3, §4, §5, §6

The test system of data set [6] is several human tumor cell lines (A375, HT29, MCF-7, A2780, and HeLa). The data set can be described thus: SRB assays, cell line not given. Format: cell-based. The following applies: for EC50: Homo sapiens, SRB assays, lowest value of the series, cell line not stated, read-out: EC50 values as low as (analogs of madecassic acid).
Excerpt: To assess their cytotoxicity parent, triterpenoic acids 1–3, their acetates 4–6, the amides 7–18, as well as the respective rhodamine B conjugates 19–24 were subjected to SRB assays employing several human tumor cell lines (A375, HT29, MCF-7, A2780, and HeLa) as well as non-malignant fibroblasts (NIH 3T3). […]
as §3, §4, §5, §6

The mark [7] stands for this setting: Homo sapiens, HT-29, 72 h of treatment.
[8] abbreviates: Mus musculus, NIH3T3, 72 h of treatment.
The mark [9] stands for this setting: Homo sapiens, MCF7, 72 h of treatment.

Broadly, the EC50 is the concentration needed to bring the measured effect to its halfway point. On to “(3β,4α) 3-Hydroxy-23-oxoolean-12-en-28-oic Acid [Compound 1]”, for which the EC50 in data set [1] (72 h of treatment) is greater than 30 µM; in data set [2] (72 h of treatment), 16.7 ± 2.8 µM; in data set [3] (72 h of treatment) it was 18.5 ± 2.2 µM; in data set [4], 25 ± 4.1 µM; with A375 (melanoma) it was 17.3 ± 1.6 µM; in data set [5], 13 ± 1.6 µM.

On to `CCN(CC)c1ccc2c(-c3ccccc3C(=O)O)c3ccc(=[N+](CC)CC)cc-3oc2c1` [rhodamine B, reference compound], for which the cytotoxicity entry in data set [6] (SRB assay, cut-off 30 μM) is reported as “not cytotoxic”.

The melting point is the temperature of the solid-liquid transition. Compound `CC(=O)OC[C@@]1(C)[C@@H]2[C@H](O)C[C@]3(C)[C@H](CC=C4[C@@H]5[C@@H](C)[C@H](C)CC[C@]5(C(=O)Nc5ccccc5)CC[C@]43C)[C@@]2(C)C[C@@H](OC(C)=O)[C@@H]1OC(C)=O` [Compound 16, (2α,3β,4α,6β) 2,3,23-Tris(acetyloxy)-N-(phenyl)-6-hydroxyurs-12-en-28-amide] had a melting point of 135 to 139 °C. The same compound showed an EC50 in data set [1] (setting [7]) of 3.7 ± 0.4 µM. The compound also yielded a 50% effective concentration (EC50) in data set [2] (setting [8]) of 21.1 ± 1.1 µM. The compound also displayed a 50% effective concentration (EC50) in data set [3] (setting [9]) of 4.5 ± 0.9 µM. The EC50 in data set [6] is no less than 0.015 µM. This compound had a concentration giving a half-maximal response (EC50) in the data set with A375 (melanoma) (Homo sapiens, A-375, 72 h) of 1.3 ± 0.1 µM. Moreover, the EC50 in data set [5] (Homo sapiens, A2780) turned out to be 2.2 ± 0.1 µM.

On to `CC(=O)OC[C@@]1(C)[C@@H]2[C@H](O)C[C@]3(C)[C@H](CC=C4[C@@H]5[C@@H](C)[C@H](C)CC[C@]5(C(=O)O)CC[C@]43C)[C@@]2(C)C[C@@H](OC(C)=O)[C@@H]1OC(C)=O` [Compound 6, (2α,3β,4α,6β) 2,3,23-Tris(acetyloxy)-6-hydroxyurs-12-en-28-oic Acid], for which the EC50 in data set [1] (setting [7]) is 14.5 ± 1.1 µM; in data set [2] (setting [8]), 7.6 ± 0.8 µM; in data set [3] (setting [9]), 7.1 ± 0.6 µM; in data set [6] it was no less than 0.015 µM; in the data set on A375 (melanoma) (Homo sapiens, A-375, 72 h), 3.5 ± 0.5 µM; in data set [5] (Homo sapiens, A2780) it was 8.1 ± 0.7 µM.

Take `CCN(CC)c1ccc2c(-c3ccccc3C(=O)N3CCN(C(=O)[C@]45CC[C@@H](C)[C@H](C)[C@H]4C4=CC[C@@H]6[C@@]7(C)C[C@@H](OC(C)=O)[C@H](OC(C)=O)[C@@](C)(COC(C)=O)[C@@H]7[C@H](O)C[C@@]6(C)[C@]4(C)CC5)CC3)c3ccc(=[N+](CC)CC)cc-3oc2c1` [Compound 23, N-{6-Diethylamino-9-[2-({4[ (2α,3β,4α,6β)-2,3,23-tris(acetyloxy)-6-hydroxy-28-oxours-12-en-28-yl)-1-piperazinyl]carbonyl]phenyl]-3H-xanthen-3-ylidene)-N-ethylethanaminium Chloride]: the half-maximal effective concentration (EC50) in data set [1] (setting [7]) is 0.108 ± 0.02 µM; in data set [2] (setting [8]) it was 0.277 ± 0.03 µM; in data set [3] (setting [9]) it was 0.054 ± 0.01 µM; in data set [6], no less than 0.015 µM; with A375 (melanoma) (Homo sapiens, A-375, 72 h) it was 0.055 ± 0.01 µM; in data set [5] (Homo sapiens, A2780), 0.015 ± 0.001 µM.

In the case of `CC(=O)O[C@H]1CC[C@]2(C)[C@H]3CC=C4[C@@H]5CC(C)(C)CC[C@]5(C(=O)O)CC[C@@]4(C)[C@]3(C)CC[C@H]2[C@]1(C)C=O` [Compound 4, (3β,4α) 3-(Acetyloxy)-23-oxoolean-12-en-28-oic Acid], the EC50 in data set [1] (setting [7]) is greater than 30 µM; in data set [3] (setting [9]) it was 24.6 ± 4.7 µM; in data set [4] (Homo sapiens, HeLa), greater than 30 µM; in the data set with A375 (melanoma) (Homo sapiens, A-375, 72 h), greater than 30 µM.

Regarding `C[C@H]1[C@H](C)CC[C@]2(C(=O)O)CC[C@]3(C)C(=CC[C@@H]4[C@@]5(C)C[C@@H](O)[C@H](O)[C@@](C)(CO)[C@@H]5[C@H](O)C[C@]43C)[C@H]12` [Compound 3, Madecassic Acid], the EC50 in data set [1] (setting [7]) was greater than 30 µM; in data set [2] (setting [8]), greater than 30 µM; in data set [3] (setting [9]), greater than 30 µM; in data set [6], no less than 0.015 µM; in the data set on A375 (melanoma) (Homo sapiens, A-375, 72 h), greater than 30 µM; in data set [5] (Homo sapiens, A2780), greater than 30 µM.

Compound `CC(=O)OC[C@@]1(C)[C@@H]2[C@H](O)C[C@]3(C)[C@H](CC=C4[C@@H]5[C@@H](C)[C@H](C)CC[C@]5(C(=O)NCc5ccccc5)CC[C@]43C)[C@@]2(C)C[C@@H](OC(C)=O)[C@@H]1OC(C)=O` [Compound 15, (2α,3β,4α,6β) 2,3,23-Tris(acetyloxy)-N-(benzyl)-6-hydroxyurs-12-en-28-amide] showed a melting point of 90 to 95 °C. The same compound yielded a 50% effective concentration (EC50) in data set [1] (setting [7]) of 2.3 ± 0.2 µM. Also, in data set [2] (setting [8]), the response was half-maximal at 17.9 ± 2.1 µM (EC50). In data set [3] (setting [9]), this compound registered an EC50 of 2.7 ± 0.4 µM. The EC50 in data set [6] was no less than 0.015 µM. The 50% effective concentration (EC50) with A375 (melanoma) (Homo sapiens, A-375, 72 h) came out at 1 ± 0.1 µM. In data set [5] (Homo sapiens, A2780), this compound gave a 50% effective concentration (EC50) of 1.4 ± 0.1 µM.
